Experimental data: US6603046B1, “Bis-aromatic a,β-unsaturated ketones” (Lica Pharmaceuticals A/S, priority 1992, dated 2003)
In brackets after ≈: the same amount, converted by molar mass. Where two headings read alike, the source gives them in different places.

Tests used:
L. major promastigotes = assay: In vitro growth of L. major promastigotes, 3H-thymidine uptake (Example 4); format: cell-based, Leishmania major; conditions: Leishmania major; for IC50: read-out: concentration for 50% inhibition; for inhibition at 1 µg/mL: 1 μg/ml; for inhibition at 2 µg/mL: 2 μg/ml; for inhibition at 5 µg/mL: 5 μg/ml; for inhibition at 10 µg/mL: 10 μg/ml; for inhibition at 20 µg/mL: 20 μg/ml
[1] = tested on: L. major amastigotes in U937 cells; assay: L. major amastigotes in U937 cells, microscopic counting (Example 7); format: cell-based, Leishmania major
L. gormanii = assay: microbe, parasite or virus in culture; format: cell-based; conditions: Fluoribacter gormanii
L. micdadei = assay: microbe, parasite or virus in culture; format: cell-based, Legionella micdadei
M. tuberculosis = assay: Radiometric MIC/MBC (Example 19); format: cell-based
Protocol: 63 strains of mycobacteria were used in this study. The bacteria were grown in Dubos broth media before susceptibility testing. Licochalcone A was isolated as described in Example 1. Licochalcone A was dissolved in dimethyl sulfoxide (DMSO) and diluted in distilled water to the desired concentration.
Susceptibility testing was performed radiometrically by using a BECTEC 460-TB apparatus (Becton Dickinson) in a confined atmosphere (5% CO2). […] The growth was expressed as a numerical value called the growth index (GI) which ranged from 1 to 999. The 7H12 vials were inoculated with 0.1 ml of an appropriately diluted Dubos broth culture to give a final inoculum of about 5×10^4 colony-forming units (CFU) per ml together with 0.1 ml of different concentrations of licochalcone A. The final concentrations of licochalcone A tested ranged from 1.25 μg/ml to 80 μg/ml. A vial without licochalcone A, but with an inoculum diluted 1:100, was included as a control. The final inoculum was determinate by culturing 0.1 ml from the control vial onto one Lowenstein-Jensen slant. The vials were incubated under stationary conditions at 35° C. and growth was monitored by daily GI determination for 7 days. At day 7, 0.1 ml from each vial with a GI reading <30 was cultured onto one Lowenstein-Jensen slant. Colony counts were enumerated after incubation at 35° C. for 3 weeks.

[2] = tested on: human monocytes/macrophages; assay: Electron microscopy of human monocytes/macrophages with and without ingested L. major (Example 12); conditions: for ultrastructure of macrophage: macrophage alone
[3] = read-out: percentage inhibition of 3H-thymidine uptake (mean ± SEM), 3-day culture
[4] = read-out: percentage inhibition of 3H-thymidine uptake (mean ± SEM), 6-day culture
[5] = 3 days after infection, 0.5 μg/ml
[6] = 3 days after infection, 1 μg/ml
[7] = 6 days after infection, 0.5 μg/ml
[8] = 6 days after infection, 1 μg/ml

C=CC(C)(C)c1cc(/C=C/C(=O)c2ccc(O)cc2)c(OC)cc1O [Licochalcone A, licochalcone A] gave an IC50 (L. major promastigotes; log phase promastigotes) of 2 to 5 µg/mL (≈ 5.91 to 14.8 µM), an inhibition at 1 µg/mL (L. major promastigotes; [3]) of 3.6 ± 11.5% and an inhibition at 2 µg/mL (L. major promastigotes; [3]) of 14.8 ± 21.5%. The inhibition at 5 µg/mL (L. major promastigotes; [3]) was 63.9 ± 13%, the inhibition at 10 µg/mL (L. major promastigotes; [3]) was 91.9 ± 8.4% and the inhibition at 20 µg/mL (L. major promastigotes; [3]) was 96 ± 7.5%. The inhibition at 1 µg/mL (L. major promastigotes; [4]) was 15.8 ± 16.5%, the inhibition at 2 µg/mL (L. major promastigotes; [4]) was 42.6 ± 19.7% and the inhibition at 5 µg/mL (L. major promastigotes; [4]) was 80.7 ± 6.4%. The inhibition at 10 µg/mL (L. major promastigotes; [4]) was 96.4 ± 1.2%, the inhibition at 20 µg/mL (L. major promastigotes; [4]) was 99.4 ± 1.1% and the IC50 (L. major promastigotes; stationary phase promastigotes) was roughly 2 µg/mL (≈ 5.91 µM). The “% of amast.” value [1, 5] was 96.6%, the “% of infec. cells” value [1, 5] was 28.0% and the amast. per cell [1, 5] was 2.3. For the same molecule, the proma per cell [1, 5] was 0.1, the total amast. [1, 5] was 65.0 ×10^6 and the total proma. [1, 5] was 2.3 ×10^6. For the same molecule, the “% of amast.” value [1, 6] was 91.2%, the “% of infec. cells” value [1, 6] was 19.0% and the amast. per cell [1, 6] was 2.0. The proma per cell [1, 6] was 0.2, the total amast. [1, 6] was 38.3 ×10^6 and the total proma. [1, 6] was 3.7 ×10^6. The “% of infec. cells” value ([1]; 3 days after infection, 5 μg/ml) was 0%, the “% of infec. cells” value ([1]; 3 days after infection, 10 μg/ml) was 0% and the “% of amast.” value [1, 7] was 100%. For the same molecule, the “% of infec. cells” value [1, 7] was 13.7%, the amast. per cell [1, 7] was 3.1 and the proma per cell [1, 7] was 0. For the same molecule, the total amast. [1, 7] was 42.0 ×10^6, the total proma. [1, 7] was 0 ×10^6 and the “% of amast.” value [1, 8] was 100%. For the same molecule, the “% of infec. cells” value [1, 8] was 3.0%, the amast. per cell [1, 8] was 1.8 and the proma per cell [1, 8] was 0. The total amast. [1, 8] was 5.3 ×10^6, the total proma. [1, 8] was 0 ×10^6 and the “% of infec. cells” value ([1]; 6 days after infection, 5 μg/ml) was 0%. For the same molecule, the “% of infec. cells” value ([1]; 6 days after infection, 10 μg/ml) was 0%, the MIC (L. gormanii) was 500 µg/mL (≈ 1480 µM) and the MIC (L. micdadei; Fluoribacter gormanii, read-out: MIC-values, Legionella gormanii and the 4 L. micdadei isolates) was 15 to 500 µg/mL (≈ 44.3 to 1480 µM). It also gave an MIC (L. micdadei; Legionella micdadei, L. micdadei (Bari)) of 60 µg/mL (≈ 177 µM), an MIC (L. micdadei; Legionella micdadei, L. micdadei (Detroit)) of 15 µg/mL (≈ 44.3 µM) and an MIC (L. micdadei; Legionella micdadei, L. micdadei (F 1433)) of 60 µg/mL (≈ 177 µM). For the same molecule, the MIC (L. micdadei; Legionella micdadei, L. micdadei, 1 strain) was 500 µg/mL (≈ 1480 µM), the “meanMIC (second line)” value (M. tuberculosis; n = 2) was “meanMIC = 40 μg/ml (n = 2)” and the meanMIC (M. tuberculosis; n = 19) was “meanMIC = 7.1 μg/ml”. The rangeMIC (M. tuberculosis; n = 19) was “rangeMIC = 5-10 μg/ml (n = 19)”, the “intracellular amastigotes, electron microscopy” value ([2]; macrophage + L. major, 10 μg/ml) was “Most of the intracellular amastigotes were now killed” and the ultrastructure of macrophage ([2]; 5 μg/ml) was “No changes compared to the control culture”. The ultrastructure of macrophage ([2]; 10 μg/ml) was “No changes compared to the control culture”.
